pEC50: −log10 of the molar value. Where a name gives a salt, the structure may show the parent alone.
Assays:
[1] = system: HT22 cells (mouse hippocampal neuron); test: Cell cytotoxicity test: protection of HT22 cells against glutamate toxicity (EC50) and cytotoxicity of the compounds (CC50), MTT; assay type: cell-based; settings: Mus musculus, HT-22, five millimolar glutamate, 24 hrs, read-out: EC50 (neuroprotective effect against glutamate toxicity)
Description: (§1) HT22 cells (mouse hippocampal neuron, Salk Institute and KRIBB) were plated in a 96-well plate at a density of 3×10^3 cells/well for 16 hrs before treatment. The cells were treated with five millimolar glutamate and various concentrations of the inventive compounds and incubated for 24 hrs in a growth media (DMEM with 10% FBS and 1% penicillin streptomycin). Then, the cells were treated with 3-(4,5-dimethylthiazol-2-yl)-2,5-diphenyltetrazolium bromide (MTT, Sigma®) for 4 hrs and absorbance of each well was measured with a plate reader at a wavelength of 450 nm. [Da-Qing, et. al., Anti-oxidant and anti-inflammatory activities of macelignan in murine hippocampal cell line and primary culture of rat microglia cells, BBRC, 2005, 331, 1264-1269].
(§2) In Table 1, EC50 is neuroprotective effect against glutamate toxicity and CC50 is cytotoxicity of the compounds. The EC50 values were statistically analyzed using Prizm® (GraphPad Software Inc., San Diego, Calif., USA).

[2] = as above; assay type: cell-based, mouse; settings: mouse, HT22 cells (mouse hippocampal neuron)
Description: as §1, §2

| SMILES | pEC50 [1] | CC50 at 24 h [2] [nM] |
| --- | --- | --- |
| Oc1cc2c(cc1Nc1ccccc1C(F)(F)F)C[C@@H]1NCC[C@]23CCCC[C@H]13 [Example 52, (+)-3-Hydroxy-2-(2-(trifluoromethyl)phenylamino)morphinan TFA salt] | 7.60 | 1500 |
| Oc1cc2c(cc1Nc1ccc3c(c1)CCCC3)C[C@@H]1NCC[C@]23CCCC[C@H]13 [Example 71, (+)-3-Hydroxy-24(5,6,7,8-tetrahydronaphthalen-2-ybamino)morphinan TFA salt] | 7.44 | 1600 |
| CN(C)c1ccccc1Nc1cc2c(cc1O)[C@]13CCCC[C@@H]1[C@H](C2)NCC3 [Example 126, (+)-2-(2-(Dimethylamino)phenylamino)-3-hydroxymorphinan TFA salt] | 7.92 | 6100 |
| Oc1cc2c(cc1Nc1ccc(Br)cc1)C[C@@H]1NCC[C@]23CCCC[C@H]13 [Example 33, (+)-2-(4-Bromophenylamino)-3-hydroxymorphinan TFA salt] | 7.16 | 1670 |
| CN(c1cc2c(cc1O)[C@]13CCCC[C@@H]1[C@H](C2)NCC3)c1ccccc1NS(C)(=O)=O [Example 125, (+)-3-Hydroxy-2-(2-(methanesulfonamido)phenyl(methyl)amino)morphinan TFA salt] | 4.96 | 45900 |
| CN(C)c1cc2c(cc1O)[C@]13CCCC[C@@H]1[C@H](C2)NCC3 [Example 98, (+)-2-(Dimethylamino)-3-hydroxymorphinan TFA salt] | 5.24 | > 100000 |
| CC(C)COC(=O)Nc1ccccc1Nc1cc2c(cc1O)[C@]13CCCC[C@@H]1[C@H](C2)NCC3 [Example 119, (+)-3-Hydroxy-2-(2-(isobutyloxycarbonylamino)phenylamino)morphinan TFA salt] | 6.68 | 8700 |
| Oc1cc2c(cc1Nc1cc(Cl)ccc1Cl)C[C@@H]1NCC[C@]23CCCC[C@H]13 [Example 64, (+)-2-(2,5-Dichlorophenylamino)-3-hydroxymorphinan TFA salt] | 6.33 | 1900 |
| CSc1cc2c(cc1O)[C@]13CCCC[C@@H]1[C@H](C2)NCC3 [Example 72, (+)-3-Hydroxy-2-methylthiomorphinan TFA salt] | 5.66 | 77300 |
| CCN(CC)c1ccccc1Nc1cc2c(cc1O)[C@]13CCCC[C@@H]1[C@H](C2)NCC3 [Example 129, (+)-2-(2-(Diethylamino)phenylamino)-3-hydroxymorphinan TFA salt] | 7.36 | 1600 |
| CC(C)Cc1cc2c(cc1O)[C@]13CCCC[C@@H]1[C@H](C2)NCC3 [Example 81, (+)-3-Hydroxy-2-isobutylmorphinan TFA salt] | 5.84 | 11300 |
| Oc1cc2c(cc1N1CCCCCC1)C[C@@H]1NCC[C@]23CCCC[C@H]13 [Example 17, (+)-2-(Azepan-1-yl)-3-hydroxymorphinan TFA salt] | 6.24 | 12200 |
| CNc1cc2c(cc1O)[C@]13CCCC[C@@H]1[C@H](C2)NCC3 [Example 18, (+)-3-Hydroxy-2-(methylamino)morphinan TFA salt] | 6.71 | 59000 |
| Oc1cc2c(cc1Nc1ccccc1OC(F)(F)F)C[C@@H]1NCC[C@]23CCCC[C@H]13 [Example 59, (+)-3-Hydroxy-2-(2-(trifluoromethoxy)phenylamino)morphinan TFA salt] | 7.16 | 1700 |
| Oc1cc2c(cc1-c1ccc(Cl)cc1Cl)C[C@@H]1NCC[C@]23CCCC[C@H]13 [Example 76, (+)-2-(2,4-Dichlorophenyl)-3-hydroxymorphinan TFA salt] | 5.53 | 4400 |
| Oc1cc2c(cc1Nc1ccc(Cl)cc1)C[C@@H]1NCC[C@]23CCCC[C@H]13 [Example 25, (+)-2-(4-Chlorophenylamino)-3-hydroxymorphinan TFA salt] | 7.21 | 1870 |
| CC(C)(C)Nc1cc2c(cc1O)[C@]13CCCC[C@@H]1[C@H](C2)NCC3 [Example 20, (+)-2-(tert-Butylamino)-3-hydroxymorphinan TFA salt] | 6.37 | > 100000 |
| Oc1cc2c(cc1Nc1ccccc1)C[C@@H]1NCC[C@]23CCCC[C@H]13 [Example 30, (+)-3-Hydroxy-2-(phenylamino)morphinan TFA salt] | 7.45 | 7790 |
| Oc1cc2c(cc1Nc1ccccc1F)C[C@@H]1NCC[C@]23CCCC[C@H]13 [Example 38, (+)-2-(2-Fluorophenylamino)-3-hydroxymorphinan TFA salt] | 6.68 | 11800 |
| COc1ccc(Nc2cc3c(cc2O)[C@]24CCCC[C@@H]2[C@H](C3)NCC4)cc1 [Example 31, (+)-3-Hydroxy-2-(4-methoxyphenylamino)morphinan TFA salt] | 7.39 | 7500 |

| SMILES | pEC50 [1] | CC50 at 24 h [2] [nM] |
| --- | --- | --- |
| Oc1cc2c(cc1N1CCCC1)C[C@@H]1NCC[C@]23CCCC[C@H]13 [Example 22, (+)-3-Hydroxy-2-(pyrrolidin-1-yl)morphinan TFA salt] | 6.20 | 80500 |
| Oc1cc2c(cc1Nc1cccc3cccnc13)C[C@@H]1NCC[C@]23CCCC[C@H]13 [Example 66, TFA salt] | 7.67 | 2900 |
| Oc1cc2c(cc1Nc1cccc(F)c1O)C[C@@H]1NCC[C@]23CCCC[C@H]13 [Example 57, (+)-2-(3-Fluoro-2-hydroxyphenylamino)-3-hydroxymorphinan TFA salt] | 6.70 | 5500 |
| Oc1cc2c(cc1Nc1ccccc1-c1ccccc1)C[C@@H]1NCC[C@]23CCCC[C@H]13 [Example 60, (+)-2-(Biphenyl-2-ylamino)-3-hydroxymorphinan TFA salt] | 7.72 | 1400 |
| NC(=O)c1ccccc1Nc1cc2c(cc1O)[C@]13CCCC[C@@H]1[C@H](C2)NCC3 [Example 61, (+)-2-(2-Carbamoylphenylamino)-3-hydroxymorphinan TFA salt] | 5.75 | 50000 |
| CS(=O)(=O)Nc1ccc(Nc2cc3c(cc2O)[C@]24CCCC[C@@H]2[C@H](C3)NCC4)cc1 [Example 114, (+)-3-Hydroxy-2-(4-(methanesulfonamido)phenylamino)morphinan TFA salt] | 7.48 | 11400 |
| CCOC(=O)Nc1ccccc1Nc1cc2c(cc1O)[C@]13CCCC[C@@H]1[C@H](C2)NCC3 [Example 117, (+)-2-(2-(Ethoxycarbonylamino)phenylamino)-3-hydroxymorphinan TFA salt] | 5.97 | 36500 |
| CS(=O)(=O)Nc1ccccc1Nc1cc2c(cc1O)[C@]13CCCC[C@@H]1[C@H](C2)NCC3 [Example 110, (+)-3-Hydroxy-2-(2-(methanesulfonamido)phenylamino)morphinan TFA salt] | 8.34 | 7550 |
| Oc1cc2c(cc1Nc1ccc3c(c1)OCO3)C[C@@H]1NCC[C@]23CCCC[C@H]13 [Example 36, (+)-3-Hydroxy-2-((3,4-methylendioxy)phenylamino)morphinan TFA salt] | 6.52 | 84500 |
| Oc1cc2c(cc1Nc1ccccn1)C[C@@H]1NCC[C@]23CCCC[C@H]13 [Example 34, (+)-3-Hydroxy-2-(pyridin-2-ylamino)morphinan 2TFA salt] | 5.63 | 41500 |
| OCCNc1cc2c(cc1O)[C@]13CCCC[C@@H]1[C@H](C2)NCC3 [Example 100, (+)-3-Hydroxy-2-(2-hydroxyethylamino)morphinan TFA salt] | 4.93 | > 100000 |
| Oc1ccc(Nc2cc3c(cc2O)[C@]24CCCC[C@@H]2[C@H](C3)NCC4)c(O)c1 [Example 45, (+)-2-(2,4-Dihydroxyphenylamino)-3-hydroxymorphinan TFA salt] | 7.14 | 40900 |
| COc1ccc(Nc2cc3c(cc2O)[C@]24CCCC[C@@H]2[C@H](C3)NCC4)cc1OC [Example 63, (+)-2-(3,4-Dimethoxyphenylamino)-3-hydroxymorphinan TFA salt] | 7.54 | 10100 |
| Oc1cc2c(cc1Nc1cccc3cnccc13)C[C@@H]1NCC[C@]23CCCC[C@H]13 [Example 67, TFA salt] | 6.97 | 12500 |
| CCN(CC)c1cc2c(cc1O)[C@]13CCCC[C@@H]1[C@H](C2)NCC3 [Example 101, (+)-2-(Diethylamino)-3-hydroxymorphinan TFA salt] | 4.85 | > 100000 |
| N#Cc1ccccc1Nc1cc2c(cc1O)[C@]13CCCC[C@@H]1[C@H](C2)NCC3 [Example 107, (+)-2-(2-Cyanophenylamino)-3-hydroxymorphinan TFA salt] | 6.25 | 5800 |
| CC(C)(C)C(=O)Nc1ccccc1Nc1cc2c(cc1O)[C@]13CCCC[C@@H]1[C@H](C2)NCC3 [Example 115, (+)-3-Hydroxy-2-(2-(pivalamido)phenylamino)morphinan TFA salt] | 5.60 | 53600 |
| CCC(C)Nc1cc2c(cc1O)[C@]13CCCC[C@@H]1[C@H](C2)NCC3 (stereo partly drawn) [Example 95, (+)-2-(sec-Butylamino)-3-hydroxymorphinan TFA salt] | 6.88 | 66400 |
| Nc1ccc(Nc2cc3c(cc2O)[C@]24CCCC[C@@H]2[C@H](C3)NCC4)cc1 [Example 32, (+)-2-(4-Aminophenyamino)-3-hydroxymorphinan TFA salt] | 7.37 | 14100 |

Reference: US20120122848A1, “(+)-3-HYDROXYMORPHINAN DERIVATIVES AS NEUROPROTECTANTS” (GREEN CROSS CORPORATION, priority 2009, published 2012)
